Laboratory results as given in publication PMC6812009, “Covalent Aurora A regulation by the metabolic integrator coenzyme A” (Redox Biology, 2019).

What was measured:
Assay in all cases: Kinase profiling screen (radioactive filter-binding assay)
Format in all cases: biochemical
[1] = biological target: BTK (Homo sapiens, UniProt Q06187); conditions: for activity at 100 µM: 100 μM compound, 50 μM ATP, read-out: Kinase activity, % of activity in the absence of inhibitor
Method in brief: (§1)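 CoA, dpCoA and ADP were each tested in vitro, in duplicate, at 100 μM final concentration as part of a 117-kinase panel. Recombinant kinases were used with model substrates and optimal ATP concentrations.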

[2] = biological target: CAMK1 (Homo sapiens, UniProt Q14012); conditions: 100 μM compound, 50 μM ATP; read-out: Kinase activity, % of activity in the absence of inhibitor
Method in brief: as §1

[3] = biological target: MAPKAP-K2 (Homo sapiens, UniProt P49137); conditions: 100 μM compound, 20 μM ATP; read-out: Kinase activity, % of activity in the absence of inhibitor
MAPKAP-K2, sequence (P49137 whole entry): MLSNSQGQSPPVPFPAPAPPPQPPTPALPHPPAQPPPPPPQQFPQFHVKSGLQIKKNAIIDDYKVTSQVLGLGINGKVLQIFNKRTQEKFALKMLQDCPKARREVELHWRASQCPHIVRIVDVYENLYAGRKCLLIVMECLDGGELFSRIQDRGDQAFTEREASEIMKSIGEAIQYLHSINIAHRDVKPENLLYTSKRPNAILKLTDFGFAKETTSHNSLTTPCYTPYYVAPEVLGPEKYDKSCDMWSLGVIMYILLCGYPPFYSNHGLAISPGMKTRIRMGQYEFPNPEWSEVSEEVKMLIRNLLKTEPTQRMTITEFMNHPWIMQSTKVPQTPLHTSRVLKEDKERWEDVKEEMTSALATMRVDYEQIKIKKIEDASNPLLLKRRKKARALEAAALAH
Method in brief: as §1

[4] = biological target: MAPKAP-K3 (Homo sapiens, UniProt Q16644); conditions: 100 μM compound, 20 μM ATP; read-out: Kinase activity, % of activity in the absence of inhibitor
MAPKAP-K3, sequence (Q16644 whole entry): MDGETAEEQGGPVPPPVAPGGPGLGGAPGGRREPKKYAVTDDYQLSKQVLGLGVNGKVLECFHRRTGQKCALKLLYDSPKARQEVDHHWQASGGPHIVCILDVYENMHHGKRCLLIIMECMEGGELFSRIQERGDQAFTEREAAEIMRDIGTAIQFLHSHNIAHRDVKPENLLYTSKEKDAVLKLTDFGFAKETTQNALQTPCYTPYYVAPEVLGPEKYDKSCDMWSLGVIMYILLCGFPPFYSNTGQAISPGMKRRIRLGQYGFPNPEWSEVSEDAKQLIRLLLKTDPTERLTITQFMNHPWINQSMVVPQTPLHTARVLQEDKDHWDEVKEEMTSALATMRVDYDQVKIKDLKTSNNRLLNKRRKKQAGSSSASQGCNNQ
Method in brief: as §1

[5] = biological target: MKK2 (Homo sapiens, UniProt P36507); conditions: 100 μM compound, 5 μM ATP; read-out: Kinase activity, % of activity in the absence of inhibitor
MKK2, sequence (P36507 whole entry): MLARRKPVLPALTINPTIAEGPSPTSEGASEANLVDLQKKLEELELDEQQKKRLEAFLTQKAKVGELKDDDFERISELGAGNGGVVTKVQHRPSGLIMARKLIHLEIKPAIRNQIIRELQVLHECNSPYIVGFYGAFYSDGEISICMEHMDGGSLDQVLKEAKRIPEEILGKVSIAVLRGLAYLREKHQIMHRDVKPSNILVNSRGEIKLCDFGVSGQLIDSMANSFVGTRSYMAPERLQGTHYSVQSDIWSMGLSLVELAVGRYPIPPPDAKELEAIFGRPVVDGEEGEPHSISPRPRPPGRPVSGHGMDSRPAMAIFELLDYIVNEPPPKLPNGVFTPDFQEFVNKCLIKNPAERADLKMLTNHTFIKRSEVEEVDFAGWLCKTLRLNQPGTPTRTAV
Method in brief: as §1

[6] = biological target: PAK2 (Homo sapiens, UniProt Q13177); conditions: 100 μM compound, 20 μM ATP; read-out: Kinase activity, % of activity in the absence of inhibitor
PAK2, sequence (Q13177 whole entry): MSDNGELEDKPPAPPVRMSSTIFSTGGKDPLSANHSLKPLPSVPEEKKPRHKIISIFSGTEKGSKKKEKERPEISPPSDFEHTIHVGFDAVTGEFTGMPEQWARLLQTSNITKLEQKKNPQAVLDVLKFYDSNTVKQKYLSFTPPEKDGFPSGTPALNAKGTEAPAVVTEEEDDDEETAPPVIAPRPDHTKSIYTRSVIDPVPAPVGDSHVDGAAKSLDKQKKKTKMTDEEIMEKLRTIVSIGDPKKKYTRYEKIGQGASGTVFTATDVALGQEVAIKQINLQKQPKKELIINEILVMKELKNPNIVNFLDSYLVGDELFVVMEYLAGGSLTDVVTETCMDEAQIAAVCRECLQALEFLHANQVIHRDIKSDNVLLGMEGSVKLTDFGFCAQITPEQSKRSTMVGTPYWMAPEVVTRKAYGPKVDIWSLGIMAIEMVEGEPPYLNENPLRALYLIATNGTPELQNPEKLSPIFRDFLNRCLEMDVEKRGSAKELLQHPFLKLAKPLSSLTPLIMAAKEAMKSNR
Method in brief: as §1

[7] = biological target: RIPK2 (Homo sapiens, UniProt O43353); conditions: 100 μM compound, 20 μM ATP; read-out: Kinase activity, % of activity in the absence of inhibitor
RIPK2, sequence (O43353 whole entry): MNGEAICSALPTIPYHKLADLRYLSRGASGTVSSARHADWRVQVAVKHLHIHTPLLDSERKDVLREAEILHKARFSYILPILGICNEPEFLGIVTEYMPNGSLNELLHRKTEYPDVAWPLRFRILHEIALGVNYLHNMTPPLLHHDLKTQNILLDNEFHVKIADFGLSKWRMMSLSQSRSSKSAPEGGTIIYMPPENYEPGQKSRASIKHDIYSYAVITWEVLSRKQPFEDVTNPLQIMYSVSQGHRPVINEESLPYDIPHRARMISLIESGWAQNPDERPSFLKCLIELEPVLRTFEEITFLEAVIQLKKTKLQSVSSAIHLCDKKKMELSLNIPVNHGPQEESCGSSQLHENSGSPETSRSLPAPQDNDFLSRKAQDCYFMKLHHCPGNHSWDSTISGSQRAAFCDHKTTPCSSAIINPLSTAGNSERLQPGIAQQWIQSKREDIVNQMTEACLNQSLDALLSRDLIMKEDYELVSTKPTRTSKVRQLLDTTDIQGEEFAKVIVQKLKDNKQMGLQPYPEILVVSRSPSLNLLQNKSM
Method in brief: as §1

[8] = biological target: SYK (Homo sapiens, UniProt P43405); conditions: 100 μM compound, 20 μM ATP; read-out: Kinase activity, % of activity in the absence of inhibitor
Method in brief: as §1

[9] = biological target: T1, TAO1 (Homo sapiens, UniProt Q7L7X3); conditions: 100 μM compound, 20 μM ATP; read-out: Kinase activity, % of activity in the absence of inhibitor
T1 sequence (Q7L7X3 1-1001): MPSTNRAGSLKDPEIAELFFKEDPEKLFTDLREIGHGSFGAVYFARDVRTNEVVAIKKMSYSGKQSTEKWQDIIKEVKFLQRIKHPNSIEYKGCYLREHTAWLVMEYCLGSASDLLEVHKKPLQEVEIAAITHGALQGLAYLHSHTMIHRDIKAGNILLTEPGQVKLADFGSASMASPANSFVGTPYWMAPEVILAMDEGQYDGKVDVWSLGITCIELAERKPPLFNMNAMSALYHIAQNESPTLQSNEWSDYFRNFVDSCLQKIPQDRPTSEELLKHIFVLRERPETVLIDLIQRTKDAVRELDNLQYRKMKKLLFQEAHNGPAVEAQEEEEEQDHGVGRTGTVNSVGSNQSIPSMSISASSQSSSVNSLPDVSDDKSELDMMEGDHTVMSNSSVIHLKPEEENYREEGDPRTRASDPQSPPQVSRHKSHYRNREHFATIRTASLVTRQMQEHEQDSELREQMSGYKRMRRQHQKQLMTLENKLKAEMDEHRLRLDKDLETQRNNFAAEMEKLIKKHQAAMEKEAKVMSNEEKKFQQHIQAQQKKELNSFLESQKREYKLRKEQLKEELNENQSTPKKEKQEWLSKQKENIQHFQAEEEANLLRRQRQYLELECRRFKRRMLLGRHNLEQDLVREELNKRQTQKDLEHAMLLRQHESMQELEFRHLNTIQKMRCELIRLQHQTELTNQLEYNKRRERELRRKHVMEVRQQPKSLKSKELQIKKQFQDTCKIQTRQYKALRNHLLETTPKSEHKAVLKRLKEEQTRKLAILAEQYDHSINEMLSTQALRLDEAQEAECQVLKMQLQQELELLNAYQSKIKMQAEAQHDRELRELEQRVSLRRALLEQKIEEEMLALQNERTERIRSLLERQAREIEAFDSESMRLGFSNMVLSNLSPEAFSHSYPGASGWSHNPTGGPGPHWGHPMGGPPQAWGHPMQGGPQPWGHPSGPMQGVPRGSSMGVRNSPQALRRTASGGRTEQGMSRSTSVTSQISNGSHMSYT
Method in brief: as §1

[10] = biological target: T2, ZAP70 (Homo sapiens, UniProt P43403); conditions: 100 μM compound, 5 μM ATP; read-out: Kinase activity, % of activity in the absence of inhibitor
T2 sequence (P43403 1-619): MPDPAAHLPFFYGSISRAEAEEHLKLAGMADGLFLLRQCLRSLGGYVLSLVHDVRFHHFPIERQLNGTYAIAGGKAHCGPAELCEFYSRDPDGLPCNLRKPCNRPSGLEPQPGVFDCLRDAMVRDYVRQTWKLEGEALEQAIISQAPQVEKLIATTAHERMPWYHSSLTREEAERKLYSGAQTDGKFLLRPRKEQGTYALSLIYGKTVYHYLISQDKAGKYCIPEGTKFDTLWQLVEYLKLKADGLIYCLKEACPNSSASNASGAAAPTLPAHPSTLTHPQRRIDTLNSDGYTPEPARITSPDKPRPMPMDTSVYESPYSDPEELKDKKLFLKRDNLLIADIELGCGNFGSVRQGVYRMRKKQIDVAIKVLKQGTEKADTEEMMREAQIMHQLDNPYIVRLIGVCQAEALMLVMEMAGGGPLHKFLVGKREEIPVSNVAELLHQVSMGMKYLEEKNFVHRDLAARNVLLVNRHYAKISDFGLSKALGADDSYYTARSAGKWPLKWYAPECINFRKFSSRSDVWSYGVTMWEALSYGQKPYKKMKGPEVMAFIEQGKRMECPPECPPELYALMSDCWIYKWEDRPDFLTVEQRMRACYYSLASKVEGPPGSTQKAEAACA
Method in brief: as §1

BTK, sequence (Q06187 whole entry): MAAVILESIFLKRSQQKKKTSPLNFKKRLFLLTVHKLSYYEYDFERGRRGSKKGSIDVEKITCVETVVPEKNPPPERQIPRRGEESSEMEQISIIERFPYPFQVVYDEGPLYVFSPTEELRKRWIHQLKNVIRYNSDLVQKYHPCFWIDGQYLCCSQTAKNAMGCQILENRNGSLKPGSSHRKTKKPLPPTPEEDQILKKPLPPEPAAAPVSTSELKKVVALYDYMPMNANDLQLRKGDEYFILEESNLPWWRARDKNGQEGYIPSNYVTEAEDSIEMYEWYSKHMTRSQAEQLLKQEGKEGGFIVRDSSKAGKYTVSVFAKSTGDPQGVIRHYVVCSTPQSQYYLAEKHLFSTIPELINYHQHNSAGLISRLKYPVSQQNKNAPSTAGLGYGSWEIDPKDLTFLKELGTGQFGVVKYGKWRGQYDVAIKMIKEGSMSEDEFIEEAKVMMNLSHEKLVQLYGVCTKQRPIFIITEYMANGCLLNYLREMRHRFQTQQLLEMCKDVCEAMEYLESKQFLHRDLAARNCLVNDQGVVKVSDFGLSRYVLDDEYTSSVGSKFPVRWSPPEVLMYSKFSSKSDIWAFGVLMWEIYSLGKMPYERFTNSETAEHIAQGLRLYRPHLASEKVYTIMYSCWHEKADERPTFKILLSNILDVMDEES

SMILES	activity at 100 µM [1]	activity at 100 µM [2]	activity at 100 µM [3]	activity at 100 µM [4]	activity at 100 µM [5]	activity at 100 µM [6]	activity at 100 µM [7]	activity at 100 µM [8]	activity at 100 µM [9]	activity at 100 µM [10]	BTK inhibition (in words) ([1]; kinase profiling, 100 μM)
Nc1ncnc2c1ncn2C1OC(COP(=O)(O)OP(=O)(O)O)C(O)C1O (stereo not shown) [ADP]	18.2%	80.1%	53%	25.7%	35.4%	90.3%	46%	70.9%	34%	13.2%	–
CC(C)(COP(=O)(O)OP(=O)(O)OC[C@H]1O[C@@H](n2cnc3c(N)ncnc32)[C@H](O)[C@@H]1OP(=O)(O)O)[C@@H](O)C(=O)NCCC(=O)NCCS [CoA, Coenzyme A]	67.9%	124%	93.1%	98.4%	103%	88.8%	131%	98.3%	113%	89.7%	modestly inhibited
CC(C)(COP(=O)(O)OP(=O)(O)OCC1OC(n2cnc3c(N)ncnc32)C(O)C1O)C(O)C(=O)NCCC(=O)NCCS (stereo not shown) [dpCoA, dephospho-CoA]	30.6%	126%	81.7%	63%	53%	112%	88.4%	106%	98.3%	79.8%	–
